Assay results taken from patent publication US4604236A, “Calcitonin analogs” (priority 1985, dated 1986).

Assays:
[1] = test system: serum calcium concentration; experiment: Biological assay of calcitonin analogs in vivo: reduction of serum calcium concentration versus salmon calcitonin standard, 2×2 parallel line assay; parameters: species or system Rats; conditions: standard used in the assay, independently determined
Description: The biological potency of des-13-serine-salmon calcitonin was determined by comparing the reduction of serum calcium concentration which followed administration by graded doses of des-Ser^13 -SCT and synthetic salmon calcitonin standard. Rats were divided into four groups of seven animals, and each group was assigned at random to a dose of standard or test solution. Low and high doses were chosen from the linear portion of the dose-response curve. For the salmon calcitonin standard, the values were 0.7 and 2.1 ng. peptide/100 g. body weight (BW). This dose approximates 3 and 9 MU/100 g. BW. Peptides were given by subcutaneous injection (0.2 ml/100 g. BW) and blood was withdrawn 1 hour later for serum calcium determination. Sera are processed and analyzed within two hours of collection. […]. Results were analyzed by a 2×2 parallel line assay [Gaddum, J. H., J. Pharm. Pharmacol., 6, 345 (1953)]. The standard salmon calcitonin used was independently determined to contain greater than 4,000 IU/mg. des-Ser^13 -SCT assayed at 4650 IU/mg.

[2] = literature values; cited from earlier work

Compound | potency content of the standard salmon calcitonin [1] | hypocalcemic potency [2]
CC(C)C[C@H](NC(=O)[C@H](CCCCN)NC(=O)CNC(=O)[C@H](CC(C)C)NC(=O)[C@@H](NC(=O)[C@@H]1CSSC[C@H](N)C(=O)N[C@@H](CO)C(=O)N[C@@H](CC(N)=O)C(=O)N[C@@H](CC(C)C)C(=O)N[C@@H](CO)C(=O)N[C@@H]([C@@H](C)O)C(=O)N1)C(C)C)C(=O)N[C@@H](CO)C(=O)N[C@@H](CCC(N)=O)C(=O)N[C@@H](CCC(=O)O)C(=O)N[C@@H](CC(C)C)C(=O)N[C@@H](Cc1c[nH]cn1)C(=O)N[C@@H](CCCCN)C(=O)N[C@@H](CC(C)C)C(=O)N[C@@H](CCC(N)=O)C(=O)N[C@H](C(=O)N[C@@H](Cc1ccc(O)cc1)C(=O)N1CCC[C@H]1C(=O)N[C@@H](CCCNC(=N)N)C(=O)N[C@H](C(=O)N[C@@H](CC(N)=O)C(=O)N[C@H](C(=O)NCC(=O)N[C@@H](CO)C(=O)NCC(=O)N[C@H](C(=O)N1CCC[C@H]1C(N)=O)[C@@H](C)O)[C@@H](C)O)[C@@H](C)O)[C@@H](C)O [standard salmon calcitonin, salmon calcitonin] | greater than 4,000 IU/mg | 
(1,7-α-L-aminosuberic acid)eel calcitonin |  | about 3400 IU/mg.
eel calcitonin [synthetic eel calcitonin] |  | around 4300 IU/mg.
